Assay: Human HepG2 cell viability assay in 384 well format
Assay type: toxicity, cell-based
Parameters: dose 125 nL, time 70.5 hour; concentration not given beside the values
Conditions: HepG2 cells, read-out: Inhibition

SMILES	cytotoxicity at 70.5 h [%]
Cc1cc(N2CCCN(C(C(=O)O)c3cccc(C)c3F)CC2)ccn1 (stereo not given)	3.14
CC(C)CCN1C[C@H]2CCN(C(=O)NC3CCCC3)CC[C@H]2S1(=O)=O	-23.9
O=C(NCc1ccco1)[C@H]1COC[C@H]2CN(Cc3ccccn3)C[C@H]21	-8.72
COc1ccccc1OCCNCc1c(C)nn(C)c1N(C)C	-3.32
CCc1ccc2nc(NCCOCCO)cc(C)c2c1	-2.24
CS(=O)(=O)N1CCCC(C(=O)N2CCOc3ccccc32)C1 (stereo not given)	-14.4
Cc1csc(N2CCN(CCc3ccccn3)CC2C)n1 (stereo not given)	-10.7
Cc1cnc(NC(=O)N2CCCC2)s1	-12
COc1cccc(S(=O)(=O)NC(=O)COC2CCCCC2)c1	0.508
CO[C@H]1CCN(C(=O)c2ccc3[nH]nnc3c2)C[C@@]12CCCO2	-6.86
CN(C)S(=O)(=O)Nc1ccc(-n2nccc2C(F)(F)F)cc1	6.87
c1ncn(CC2CN(Cc3csc(C4CCCC4)n3)CCO2)n1 (stereo not given)	-7.39
Cc1cccc(-c2nc(N)nc3c2CN(C(=O)C2CCCC2)C3C)c1 (stereo not given)	-18.6
COc1ccc(CCC(=O)N2CCNCC2C(=O)N2CCCC2)cc1 (stereo not given)	-6.16
OCC1CCCCN1Cc1cc(O)c2cccc(F)c2n1 (stereo not given)	20.1
COc1ccc2c(C)c(C(=O)NC3CCN(S(C)(=O)=O)CC3)oc2c1	-2.46
Nc1nc(CN2CCCC(Cn3cncn3)C2)nc2ccccc12 (stereo not given)	1.03
Cc1ccc(-c2nn3c(nc2=O)-c2ccccc2NC3C(=O)O)cc1C (stereo not given)	3.4
CCC[C@H]1CN(Cc2ccccc2C#N)C[C@@H]1NS(C)(=O)=O	-6.89
COCCN1CCC(CNC(=O)C2(c3cccc(C)c3)CC2)C1 (stereo not given)	17.2
CSC(C)(C)CNC(=O)NC1CCC1	-1.66
CCS(=O)(=O)N1CCC2(CN(c3ccsc3)C(=O)CN2C)C1 (stereo not given)	-124
O=C(c1cn2ccsc2n1)N1CCOCC(O)(CN2CCCC2)C1 (stereo not given)	1.73

SMILES	cytotoxicity at 70.5 h [%]
Cc1ccc(N2CCCC(N(C)Cc3cc(C)on3)C2)nn1 (stereo not given)	-5.56
Fc1ccc(-c2noc(CN3CCC(c4cc[nH]n4)CC3)n2)cc1	-3.56
Cn1cc(C(=O)N2CCN(c3ncccn3)CC2)ccc1=O	-2.44
Cc1ccc(N2CCO[C@H]3CN(Cc4nccs4)C[C@H]32)nn1	-6.14
COCCN1CCO[C@H]2CCN(C(=O)c3ccnnc3)CC[C@@H]21	-8.98
Cc1ccoc1C(=O)N1CCc2ncnc(-c3cnn(C)c3)c2CC1	24.7
Cc1ccccc1C1(CNC(=O)N2CCC(CC(N)=O)CC2)CC1	-4.35
COCC(=O)N1Cc2c(-c3cccc(C)c3)nc(N)nc2C1C (stereo not given)	-9.82
CCN1CCn2c(C)cnc2C12CCN(C(=O)N(C)C)CC2	-9.01
O=C1CN(C(=O)C2CCCOC2)CCN1Cc1ccc(Cl)cc1 (stereo not given)	-5.9
Cn1ccnc1C(O)(CCNCc1ccco1)C(F)(F)F (stereo not given)	5.83
CN(Cc1cccc(F)c1)C(=O)CS(=O)(=O)Cc1ccc(Cl)c(Cl)c1	-11.2
Cc1nn(C)c(N(C)C)c1CNCc1cccc(CN(C)C)c1	-3.97
CN(C)S(=O)(=O)N1C[C@H]2C[C@H](C(=O)NCc3ccccc3)[C@@H](C1)O2	-12.2
Cc1cccc(N2CC3(CCN(S(=O)(=O)C4CC4)C3)C2)n1	-6.18
Cc1nc(Cc2ccc(F)cc2)cc(C2COCCN2)n1 (stereo not given)	2.37
COCc1ccc(C(=O)N2CCC(Oc3ccccc3)(C(=O)O)CC2)o1	17.3
CNC(=O)c1cccc(C2CNCCN2C(=O)C2CCNCC2)c1 (stereo not given)	-5.44
CC(=O)NC1CCN(c2cc(C3CCNCC3)ccn2)CC1	-2.92
CCn1c(C)nnc1SCCNC(=O)c1cnc(C(C)(C)C)nc1O	14.5
CC(C)c1ccc(C(N)c2cccs2)cc1 (stereo not given)	-5.3
N#Cc1ccc(SCCC(=O)O)cc1	-7.41
CN(C)C(=O)COC[C@@]12CCC[C@@H]1CNC2	-13.5

SMILES	cytotoxicity at 70.5 h [%]
COCCc1noc(-c2ccc(N[C@H]3CCCCNC3=O)nc2)n1	1.36
CC(C)Cc1cc(NC(=O)c2ccccc2)n(C)n1	-15.4
COc1ccc2c(c1)CCCN2Cc1nc(C)c(C)o1	-4.99
Cc1ccc(CN2CCC3(CC(C(=O)NCC4CC4)=NO3)C2)s1 (stereo not given)	-8.89
CCn1cc(CN2CCN(C(=O)N3CCOCC3)CC2)cn1	16.2
Cn1ncnc1NS(=O)(=O)c1ccc(F)cc1Cl	-1.04
CC(C)CN1CCC2(Cc3ccccc3NC2=O)C1 (stereo not given)	-4.52
Cc1nccn1-c1cc(CNC(=O)C2CCC(=O)NC2)ccn1 (stereo not given)	12.3
Cn1ccnc1SCC(=O)NCc1ccc2c(c1)CCC(=O)N2	2.79
COc1ccccc1OCc1cc(C(=O)N2CCOCC2CO)n[nH]1 (stereo not given)	-5.23
CN1CCc2c(sc3c2C(=O)NC(/C=C/c2ccccc2)N3)C1 (stereo not given)	-11.3
Clc1ccccc1CN1CCCC(c2nnc(-c3cnccn3)o2)C1 (stereo not given)	-5.49
NCCn1cc(C(=O)N2CCNC(=O)C2c2cccc(F)c2)nn1 (stereo not given)	-11.9
Cc1cc(C)c(CNC(=O)NCC2Cc3ccccc3O2)c(=O)[nH]1 (stereo not given)	-6.51
c1ccc(CCN2CC(n3cccn3)C2)nc1	-15.6
CC(NC(N)=O)C(=O)N(C)Cc1cccc(C(F)(F)F)c1 (stereo not given)	10.7
COc1cccc(CCC(=O)N2CCN(CC(C)(C)O)CC2)c1	10.1
COc1ccc(NC(=O)CCC(C)C)c(N2CCN(C(C)=O)CC2)n1	-13.6
Fc1cccc(-n2ccc(CN3CCCCC3Cn3cncn3)n2)c1 (stereo not given)	-13.3
O=C(C1CC(=O)N(C2CC2)C1)N1CCN(CCn2cccc2)CC1 (stereo not given)	-1.53
CC(C)Oc1cc(N2CCC3(CC2)[C@H](O)C[C@@H]3O)nc(N)n1	-1.26
c1ccc(-n2ccc(CNCC3CCCN3c3cccnn3)n2)cc1 (stereo not given)	0.819
Cc1cc(CNC(C)Cn2cncn2)ccc1Br (stereo not given)	-87.4

SMILES	cytotoxicity at 70.5 h [%]
CN1CCc2c1nc1c(c2N)CCC1	-7.38
CC1CN(C)CCN1C(=O)c1ccn(-c2ccccc2)n1 (stereo not given)	17.4
CNC(=O)C1(c2cnccn2)CCCN1C(=O)c1ccccn1 (stereo not given)	8.19
O=C(c1ccnnc1)N1CCC2(CC1)CC(N1CCOCC1)C2	33.7
Cc1occc1C(=O)N1CCCC(C2=Nc3ccccc3S(=O)(=O)N2)C1 (stereo not given)	-5.45
O=C([C@@H]1CCS(=O)(=O)[C@@H]2CN(c3ncccn3)C[C@@H]21)N1CCOCC1	-1.98
O=C1N(c2ccc(Br)cc2)Cc2n[nH]c(=O)n21	23.8
c1ccc(-c2cnc(CN(Cc3cccnc3)CC3CCCO3)o2)cc1 (stereo not given)	-7.3
CCOc1ccc2cc(C(=O)NCCNc3ccc(C)nn3)[nH]c2c1	-8.09
CNc1ncc(-c2ccnn2C2CCN(C(C)=O)CC2)cn1	-7.63
CC(NC(=O)CCn1c(=O)oc2ccccc21)c1ccccn1 (stereo not given)	-2.59
Fc1cccc(CN2CCC[C@H](Cn3nnc(-c4ccccn4)n3)C2)c1	-4.05
CCc1[nH]c(C2(N)CCCCC2)nc(=O)c1C	-4.64
CC(=O)N1CCCC1c1ccc(CN2CCOCC2)cn1 (stereo not given)	16.7
CN(C)[C@@H]1CN(C(=O)c2ccc(C#N)cc2)[C@@H]2CCCO[C@H]12	3.23
c1ccc(C(Cn2cnnc2)N2CCOCC2)nc1 (stereo not given)	0.586
Cc1ncnc(NCCCN2CCCCC2CO)c1C (stereo not given)	-1.1
COc1ccc(C(C(=O)O)N(C)CCN2CCCC2)c(C)c1 (stereo not given)	24
COCCNC(=O)Cn1ccc2sc(C)cc2c1=O	-5.23
CN1CCC(Cc2cc(Nc3ncccn3)ncn2)CC1	-4.15
CCc1ncnc2c1CCN(S(=O)(=O)CC)CC2	-7.89
Cc1ccc(C2C3=C(COC3=O)Nc3[nH]nc(C)c32)cc1C (stereo not given)	-3.38
COc1c(F)cc(NC(=O)NCc2nncn2C2CC2)cc1F	0.912

SMILES	cytotoxicity at 70.5 h [%]
Cc1cnc(NCc2csc(C(C)C)n2)nc1-c1cnn(C)c1	-14.9
O=C(NCCN1CCOCC1)c1cc(Cl)c2c(c1)OCCCO2	-5.1
O=C(Cc1ccccc1)N1CCC2(CCN2Cc2ccc(F)cc2)C1 (stereo not given)	7.36
CC1CN(C(=O)CN(Cc2ccco2)Cc2cccs2)CCO1 (stereo not given)	3
CCOC(C)c1nccn1CCC(=O)Nc1cc(C)on1 (stereo not given)	6.06
CN(C(=O)CCc1ccncc1)C1CCCN(CCc2ccccc2)C1 (stereo not given)	-7.17
Cc1cc(C)n(-c2ccc(NCCNS(=O)(=O)c3ccccc3)nn2)n1	-5.4
c1ccc(CN(Cc2cccc3cnccc23)CC2CCCO2)nc1 (stereo not given)	-7.22
COCCOc1ccc(NCc2cccc3cn[nH]c23)cn1	-7.69
CC(=O)N1CC(=O)N(c2ccccc2)CC12CCN(Cc1ccsc1)C2 (stereo not given)	-8.03
CC(=O)N1CCC(c2nc3ccc(-c4ccnn4C)cn3n2)CC1	-12.4
Cc1ccc(CC(=O)NC(C)C(=O)N2CCS(=O)(=O)CC2)cc1 (stereo not given)	-2.68
Cc1cc(-c2cnc(N3CCC(O)CC3)nc2C(C)C)on1	20.4
C[C@@H]1CN(Cc2ccccn2)C[C@]12CCN(Cc1cccnc1)C2=O	-13.1
CCCc1nc(CN2CCCC2Cn2cccn2)cs1 (stereo not given)	-11.6
Cc1ccc(C)c(NC(=O)C(C)N2CCCN(c3nccs3)CC2)c1 (stereo not given)	-6.54
COCCC1CCCCN1Cc1nc(Cc2cccc(F)c2)no1 (stereo not given)	-2.75
O=C(CCNC(=O)NC1CCN(C2CC2)CC1)NCc1ccccc1	-3.29
Cc1csc(C2(NCC(O)COc3ccc(F)cc3)CCC2)n1 (stereo not given)	-0.482
O=C(Nc1ccc2c(c1)OC1(CCCCC1)O2)c1ccc(=O)[nH]n1	0.889
Cc1cnc(N2C(=O)CSC2c2ccccc2)s1 (stereo not given)	-9.48
c1ccc(-c2noc(C3CCN(CCn4cccn4)CC3)n2)cc1	12.8
Cn1ccc(CN2CCC3(CC2)CC(Nc2ccccn2)CO3)n1 (stereo not given)	-2.31
